For data set [1] the following is noted: amorphous form obtained by the process of Indian application 292/KOL/2007; cited from earlier work.
The nature of data set [2]: Glass transition temperature of the amorphous form. Format: physicochemical. How it is done:
We have filed an Indian patent application 292/KOL/2007 dated 27 Feb. 2007 in Indian Patent Office on amorphous form of carvedilol dihydrogen phosphate and the process for its preparation. The amorphous form obtained by the process described in this application has glass transition temperature below 60° C. The amorphous solids in general having low glass transition temperature not only create complications during formulation but also has stability related problems on storage. The glass transition temperature is the temperature, below which the physical properties of amorphous materials vary in a manner similar to those of a crystalline phase (glassy state), and above which amorphous materials behave like liquids (rubbery state). A materials glass transition temperature is the temperature below which molecules have little relative mobility. Thus, there exist a need to develop stable amorphous form of carvedilol dihydrogen phosphate which have improved characteristics. […] The amorphous carvedilol obtained without stabiliser having glass transition temperature 55-56° C. while the stable amorphous form of the present invention has glass transition temperature in the range between 76 to 185° C. The phosphorous content of the stable amorphous form of the present invention is between 18-20% on anhydrous basis.

SMILES strings stand for the structures. Like-named read-outs stand apart in the source and are kept apart here.

We go through one compound from patent US8278461B2, “Stable amorphous form of carvedilol dihydrogen phosphate with stabilizer” (Lupin Limited, priority 2007, dated 2012).

As for `COc1ccccc1OCCNCC(O)COc1cccc2[nH]c3ccccc3c12.O=P(O)(O)O` (centres unmarked) [carvedilol dihydrogen phosphate], the glass transition temperature result is “below 60 °C” in data set [1] and 55-56 °C in data set [2].
